pKi: −log10 of the molar value. Several values for one entry are separate records, joined by “and”; a condition that tells them apart may be missing. Equal entries are not always repeated.
Tests used:
[1] = target: T1, Substance-K receptor (Cavia porcellus, UniProt Q64077)
T1 sequence (Q64077 whole entry): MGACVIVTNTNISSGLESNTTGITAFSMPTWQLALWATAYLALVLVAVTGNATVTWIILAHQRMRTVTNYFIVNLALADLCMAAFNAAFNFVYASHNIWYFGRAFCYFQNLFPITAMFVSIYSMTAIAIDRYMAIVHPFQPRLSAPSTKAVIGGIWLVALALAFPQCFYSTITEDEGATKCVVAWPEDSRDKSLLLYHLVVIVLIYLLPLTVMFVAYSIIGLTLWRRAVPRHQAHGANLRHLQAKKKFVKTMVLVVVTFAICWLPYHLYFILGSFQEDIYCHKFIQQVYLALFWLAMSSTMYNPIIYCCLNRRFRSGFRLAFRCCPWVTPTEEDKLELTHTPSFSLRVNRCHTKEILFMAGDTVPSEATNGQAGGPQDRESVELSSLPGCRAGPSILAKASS

[2] = target: T2, Substance-K receptor (Rattus norvegicus, UniProt P16610)
T2 sequence (P16610 whole entry): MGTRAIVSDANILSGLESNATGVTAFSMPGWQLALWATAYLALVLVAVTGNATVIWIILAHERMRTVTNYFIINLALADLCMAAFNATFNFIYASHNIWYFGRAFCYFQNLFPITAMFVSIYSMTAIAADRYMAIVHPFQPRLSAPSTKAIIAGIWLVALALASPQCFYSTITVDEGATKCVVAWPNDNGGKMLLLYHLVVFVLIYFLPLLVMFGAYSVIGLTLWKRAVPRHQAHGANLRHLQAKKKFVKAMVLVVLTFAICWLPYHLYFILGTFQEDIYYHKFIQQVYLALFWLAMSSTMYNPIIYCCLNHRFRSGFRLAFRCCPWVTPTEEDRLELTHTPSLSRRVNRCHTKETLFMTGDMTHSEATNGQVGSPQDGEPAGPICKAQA

- pKi [1]: < 5.00
- pKi [2]: 5.63 and 5.28
Structure (SMILES): CC[C@H](NC(=O)c1c(OCC(=O)O)c(-c2ccccc2)nc2ccccc12)c1ccccc1 [N-[(S)-1-Phenylpropyl]-2-phenyl-3-(carboxymethoxy)quinoline-4-carboxamide]

From BindingDB's records for doi:10.1124/jpet.300.1.314 (Glaxosmithkline, 2002)
